This passage reports IC50 results from US10800788B2, “4-(aryl)-N-(3-alkoxyfuro[2,3-b]pyrazin-2-yl)-piperazine-1-carboxamide derivative and antiproliferative effect thereof” (Dongguk University Industry-Academic Cooperation Foundation, priority 2016, dated 2020).

Read-outs that look alike come from different tables or passages of the source.

For assay [1], the system named is MDA-MB-231 (breast cancer) cell line. In words: Cell growth inhibition experiment (SRB), MDA-MB-231. In kind it is cell-based, human. The note with it: 96 hours incubation. The procedure: (§1) The cell lines below were used in order to confirm the efficacy of the compounds synthesized in Examples 1 to 60. Human PANC-1 (pancreatic cancer) and MDA-MB-231 (breast cancer) cell lines were obtained from the American Type Culture Collection (ATCC; Manassas, Va.); and HN31 (head and neck cancer) and UMRC2 (kidney cancer) cell lines were secured from the United States National Institutes of Health (Bethesda, Md.). The MDA-MB-231, UMRC2, HN31, and PANC-1 cell lines were cultured in Dulbecco modified Eagle medium (DMEM; Invitrogen, Carlsbad, Calif.) containing FBS (10%), HEPES (10 mM), penicillin (100 U/mL), and streptomycin (100 μg/mL). All cell lines were cultured in an incubator (37° C., 5% CO2).
(§2) The 4-(aryl)-N-(3-alkoxyfuro[2,3-b]pyrazin-2-yl)-piperazine-1-carboxamide derivative compounds synthesized according to Examples 1 to 60 of the present invention were treated with various human tissue-derived cancer cell lines cultured according to Experimental Example 1, and thus the inhibitory effect of the growth of human cancer cells was confirmed. The cell growth inhibition experiment was conducted using the sulforhodamine B (SRB) technique (Skehan et al., J. National Cancer Institute, 1990, 82: 1107-1112). Specifically, each cell line was seeded in a 96-well plate at a density of 2 to 3×10^3 cells/well, cultured overnight, and then treated with the 4-(aryl)-N-(3-alkoxyfuro[2,3-b]pyrazin-2-yl)-piperazine-1-carboxamide derivative compounds of the present invention. The experiment was repeated 3 times for each compound. Cells treated with each compound were additionally incubated for 96 hours, fixed with 10% trichloroacetic acid (TCA), and then left at 4° C. for 1 hour. The resultant was washed 3 times with distilled water. Thereafter, each cell was treated with 0.4% sulforhodamine B dissolved in 1% acetic acid, stained for 30 minutes, and then washed 4 times with 1% acetic acid. The resultant was dried in the air. After shaking the resultant in Tris solution (10 mM) for 5 minutes, the absorbance was measured at 530 nm using a Benchmark Plus Microplate reader (Bio-Rad Laboratories, Hercules, Calif.).
(§3) In order to convert the OD530 value to the number of viable cells per each well, the measured OD530 value was compared to the standard OD530-vs.-cell number curve of each cell line. The percent survival was calculated using the following formula: % survival=Nlive cells(test)/Nlive cells(control)×100

For assay [2], the system named is PANC-1 (pancreatic cancer) cell line. Description: Cell growth inhibition experiment (SRB), PANC-1. The class given is cell-based. The note with it: Homo sapiens, PANC-1, 96 h, 96 hours incubation. The procedure: as §1, §2, §3
Another assay relates to SK-OV-3. Description: Cell growth inhibition experiment (SRB), SK-OV-3. In kind it is cell-based, human. The following applies: 96 hours incubation, read-out: IC50 (μM) for cancer cell line SK-OV-3. The procedure: as §2, §3
Assay [3] concerns HN31 (head and neck cancer) cell line. In words: Cell growth inhibition experiment (SRB), HN31. In kind it is cell-based, human. The note with it: 96 hours incubation. The procedure:
as §1, §2, §3

Assay [4] relates to UMRC2 (kidney cancer) cell line. Description: Cell growth inhibition experiment (SRB), UMRC2. The class given is cell-based, human. The following applies: 96 hours incubation. The procedure: as §1, §2, §3
The subject of another assay is A549. In words: Cell growth inhibition experiment (SRB), A549. In kind it is cell-based. The following applies: Homo sapiens, A549, 96 h, 96 hours incubation, read-out: IC50 (μM) for cancer cell line A549. The procedure:
as §2, §3

The next assay has as its system HUVEC. In words: Cell growth inhibition experiment (SRB), HUVEC. The class given is cell-based, human. The following applies: 96 hours incubation, read-out: IC50 (μM) […]. The procedure: as §2, §3
Another assay concerns HEK293. Description: Cell growth inhibition experiment (SRB), HEK293. In kind it is cell-based, human. The note with it: 96 hours incubation, read-out: IC50 (μM) for cancer cell line HEK293. The procedure: as §2, §3
The next assay relates to HT29. Description: Cell growth inhibition experiment (SRB), HT29. The class given is cell-based, human. The following applies: 96 hours incubation, read-out: IC50 (μM) for cancer cell line HT29. The procedure:
as §2, §3

As to `CCOc1nc2oc(C)cc2nc1NC(=O)N1CCN(c2cccc(OC(F)(F)F)c2)CC1` [Example 40, N-(3-Ethoxy-6-methylfuro[2,3-b]pyrazin-2-yl)-4-(3-(trifluoromethoxy)phenyl)piperazine-1-carboxamide], the IC50 was less than 2.5 µM in assay [1] (Homo sapiens, MDA-MB-231, 96 h); less than 2.5 µM in [2]; less than 2.5 µM with SK-OV-3 (Homo sapiens, SK-OV-3, 96 h); less than 2.5 µM in assay [3] (Homo sapiens, 96 h); less than 2.5 µM in [4] (Homo sapiens, UMRC2, 96 h); less than 2.5 µM with A549. Moreover, the IC50 was less than 2.5 µM in the assay on HUVEC (Homo sapiens, HUVEC, 96 h); less than 2.5 µM in the assay with HEK293 (Homo sapiens, HEK293, 96 h); less than 2.5 µM in the assay with HT29 (Homo sapiens, HT-29, 96 h).
As to `CCOc1nc2occc2nc1NC(=O)N1CCN(c2cc(C)cc(F)c2)CC1` [Example 16, N-(3-Ethoxyfuro[2,3-b]pyrazin-2-yl)-4-(3-fluoro-5-methylphenyl)piperazine-1-carboxamide], the IC50 in assay [1] (Homo sapiens, MDA-MB-231, 96 h) was 0.24 µM; in assay [2] it was less than 2.5 µM; in the assay with SK-OV-3 (Homo sapiens, SK-OV-3, 96 h), less than 2.5 µM; in assay [3] (Homo sapiens, 96 h) it was less than 2.5 µM; in assay [4] (Homo sapiens, UMRC2, 96 h) it was 0.44 µM; in the assay with A549, less than 2.5 µM. In addition, the IC50 in the assay on HUVEC (Homo sapiens, HUVEC, 96 h) is less than 2.5 µM; with HEK293 (Homo sapiens, HEK293, 96 h), less than 2.5 µM; with HT29 (Homo sapiens, HT-29, 96 h), less than 2.5 µM.
Take `CCOc1nc2oc(Cl)cc2nc1NC(=O)N1CCN(c2cc(OC)cc(OC)c2)CC1` [Example 51, N-(6-Chloro-3-ethoxyfuro[2,3-b]pyrazin-2-yl)-4-(3,5-dimethoxyphenyl)piperazine-1-carboxamide]: the IC50 is 0.32 µM in assay [1] (Homo sapiens, MDA-MB-231, 96 h); 1.58 µM in assay [2]; less than 2.5 µM in the assay on SK-OV-3 (Homo sapiens, SK-OV-3, 96 h); 1.45 µM in assay [3] (Homo sapiens, 96 h); 1.68 µM in assay [4] (Homo sapiens, UMRC2, 96 h); less than 2.5 µM in the assay with A549. Also, the IC50 in the assay on HUVEC (Homo sapiens, HUVEC, 96 h) is less than 2.5 µM; in the assay with HEK293 (Homo sapiens, HEK293, 96 h) it was less than 2.5 µM; in the assay on HT29 (Homo sapiens, HT-29, 96 h), less than 2.5 µM.
For the molecule `CCOc1nc2oc(C)cc2nc1NC(=O)N1CCN(c2cc(OC)cc(OCCN(C)C)c2)CC1` [Example 34, 4-(3-(2-(Dimethylamino)ethoxy)-5-methoxyphenyl)-N-(3-ethoxy-6-methylfuro[2,3-b]pyrazin-2-yl)piperazine-1-carboxamide], the IC50 in assay [1] (Homo sapiens, MDA-MB-231, 96 h) was 0.36 µM; in [2], 0.44 µM; with SK-OV-3 (Homo sapiens, SK-OV-3, 96 h), less than 2.5 µM; in [3] (Homo sapiens, 96 h), 1.02 µM; in assay [4] (Homo sapiens, UMRC2, 96 h) it was 1.21 µM; with A549, 0.68 µM. The IC50 in the assay with HUVEC (Homo sapiens, HUVEC, 96 h) was less than 2.5 µM; with HEK293 (Homo sapiens, HEK293, 96 h), 0.44 µM; in the assay with HT29 (Homo sapiens, HT-29, 96 h), less than 2.5 µM.
`COc1nc2occc2nc1NC(=O)N1CCN(c2cccc(OC(F)(F)F)c2)CC1` [Example 10, N-(3-Methoxyfuro[2,3-b]pyrazin-2-yl)-4-(3-(trifluoromethoxy)phenyl)piperazine-1-carboxamide]: the IC50 in assay [1] (Homo sapiens, MDA-MB-231, 96 h) came out at 1.02 µM; in [2] it was 0.68 µM; in the assay on SK-OV-3 (Homo sapiens, SK-OV-3, 96 h) it was 1.23 µM; in assay [3] (Homo sapiens, 96 h), 0.28 µM; in [4] (Homo sapiens, UMRC2, 96 h) it was 1.13 µM; in the assay with A549 it was 1.14 µM. The IC50 with HUVEC (Homo sapiens, HUVEC, 96 h) was 1.36 µM; with HEK293 (Homo sapiens, HEK293, 96 h), 0.56 µM; in the assay with HT29 (Homo sapiens, HT-29, 96 h) it was 1.27 µM.
Take `COc1cc(F)cc(N2CCN(C(=O)Nc3nc4cc(Cl)oc4nc3OC)CC2)c1` [Example 43, N-(6-Chloro-3-methoxyfuro[2,3-b]pyrazin-2-yl)-4-(3-fluoro-5-methoxyphenyl)piperazine-1-carboxamide]: the half-inhibitory concentration (IC50) in assay [1] was 0.12 µM; in assay [1] (Homo sapiens, MDA-MB-231, 96 h), 0.21 µM; with SK-OV-3, less than 2.5 µM; in the assay on SK-OV-3 (Homo sapiens, SK-OV-3, 96 h) it was 2.13 µM; in assay [3], 0.57 µM; in assay [3] (Homo sapiens, 96 h), 0.68 µM. The IC50 in assay [4] is 0.36 µM; in assay [4] (Homo sapiens, UMRC2, 96 h) it was 0.32 µM; in the assay on HUVEC it was less than 2.5 µM; in the assay with HUVEC (Homo sapiens, HUVEC, 96 h), 1.77 µM; in the assay on HEK293, less than 2.5 µM; in the assay on HEK293 (Homo sapiens, HEK293, 96 h), 1.32 µM. Also, the IC50 in the assay with HT29 was less than 2.5 µM; in the assay on HT29 (Homo sapiens, HT-29, 96 h), 1.59 µM.
